Source: PMC4585737, “Lipoproteins/peptides are sepsis-inducing toxins from bacteria that can be neutralized by synthetic anti-endotoxin peptides” (Scientific Reports, 2015)
Entries after “also recorded” stand apart in the source; their conditions may differ. Where no end group is shown, it is not given here. [ ]: non-standard residue; d: D form.

How the values were obtained:
[1] = test system: human MNCs; settings: cited from earlier work
Text: In this section, we first present in vitro data on the production of pro-inflammatory cytokines by human cells in response to LP or LTA from different origin and its neutralization by SALP. Then, we used a mouse model of acute toxemia to characterize the in vivo expression of those cytokines and to study if SALP can protect animals against lethal LP-induced sepsis.

[2] = test system: human mononuclear cells; assay: TNFα production in human mononuclear cells (MNC) stimulated by LP, LTA or PGN, and its inhibition by SALP; assay type: cell-based; settings: for stimulation of MNC (TNFα induction) compared with LPS / TNFα when adding 100 ng/ml of LP / concentration necessary to induce an observable TNFα secretion: human MNC; for stimulation of MNC (TNFα induction) compared with LPS: 4 h, ELISA
Experimental: The stimulation of MNC was performed as described previously. Briefly, MNC were isolated from heparinized blood of healthy donors by the Hypaque-Ficoll density gradient method. The cell number was equilibrated at 5 × 10^6 cells/ml RPMI 1640 containing 2 mM L-glutamine, 100 U/ml penicillin and 100 μg/ml streptomycin. For stimulation, 200 μl/well MNC were transferred into 96-well culture plates. The stimuli were serially diluted in RPMI 1640 and added to the cultures at 20 μl per well. The cultures were incubated for 4 h at 37 °C under 5% CO2. Cell-free supernatants were collected after centrifugation of the culture plates for 10 min at 400 × g and stored at −20 °C until the determination of the cytokine content. Immunological determination of TNFα in the cell supernatant was performed in a sandwich-ELISA as described earlier (OptEIA; BD, Heidelberg, Germany). TNFα was determined and measured following manufacturer’s instructions and results are the average of two assays.
LP preparations were pre-warmed for 30 min at 37 °C, and added to the cultures at 20 μl per well. In inhibition experiments, different SALP were added directly after LPS/LP/LTA administration.
Since the data of the stimulation of human MNC by the bacterial and synthetic LP was taken over a time period of more than 6 years, the TNFα production lead to considerable variations due to different batches of LP and of Pep19-2.5, and in particular due to variations resulting from blood samples of different donors. Because the main emphasis laid here is the efficiency of the peptide to inhibit the cytokine production, most figures describe the inhibition efficieny of the peptide in %, by presenting the means ± SEM of at least 3 independent experiments. The absolute values of the cytokine production, where of note, is given separately in the text.

[3] = test system: Balb/C mice; assay: Serum cytokine response in mice after intraperitoneal inoculation; assay type: in vivo, mouse; settings: 40 μg FSL-1 i.p.
Experimental: (§1) Seven-week-old female SPF-free Balb/C mice of 20 g of body weight, approximately, were purchased from Harlan Spain (Harlan Interfauna Iberica S.A., Barcelona, Spain) and randomly distributed in experimental groups (at least 4 animals per group except for the determination of lethal dose (n = 3)). Sample size was calculated based on previous results with the same animal model. Animals were housed in individually ventilated cages (5 mice per cage) bedded with hardwood bedding. Mice were provided ad libitum access to feed and water and lighting was adjusted to a 14-hour light/10-hour dark cycle. During the experiments, the condition of the animals was monitored daily every 4 hours and animals displaying persistent motor ataxia and hunched posture were euthanized.
To study if FSL-1 had pro-inflammatory cytokine-inducing activity, animals were intraperitoneally inoculated with 40 μg of FSL-1 resuspended in 200 μl of pyrogen-free saline. Blood samples were taken both at 1.5 h or 4 h after FSL-1 challenge to measure TNFα and IL-6 levels. For this purpose, mice were anesthetised, a blood sample was obtained by the retroorbital plexus and serum cytokine levels were measured using Quantikine Immunoassays kits (R&D systems, Minneapolis, USA) following manufacturer’s instructions. Differences between groups were statistically analyzed using the Mann-Whitney U test.
To evaluate the ability of Aspidasept® to neutralize the FSL-1 induced pro-inflammatory cytokines, a group of animals received by the intraperitoneal route first 40 μg of FSL-1 and then 400 μg of the drug resuspended in 100 μl of pyrogen-free saline. This second injection was administered immediately after FSL-1 challenge at a different site of the peritoneum. TNFα and IL-6 levels were measured (see above) at 1.5 h or 4 h after challenge, respectively, coinciding with the peak of cytokine secretion, as determined in preliminary experiments.

[4] = test system: Balb/C mice; assay: Lethal toxemia in galactosamine-sensitized mice; assay type: in vivo, mouse; settings: for physical activity / survival score of each animal: n = 3, one score per animal
Experimental: as §1
To determine the lethal dose of FSL-1 in mice, the method of Galanos and collaborators[48] was followed with some modifications. Briefly, animals were intraperitoneally inoculated with increasing amounts of FSL-1 (50 ng, 500 ng, 5 μg and 50 μg) supplemented with 18 mg of D-galactosamine in a final volume of 200 μl of pyrogen-free saline. Galactosamine is known to sensitize mice to pro-inflammatory compounds such as LPS, thus making it possible to use lower amounts of the stimulatory drug[46]. The ability of Aspidasept® to protect mice from FSL-1 dependent lethal toxemia was assessed by co-administering FSL-1 (4 μg/mouse) with D-galactosamine (18 mg/mouse) intraperitoneally.
Results were globally analyzed by means of a Kaplan-Meier survival analysis (SPSS 15.0). When the survival plots were parallel, the data were compared by the log-rank test, whereas the Breslow-Gehan-Wilcoxon test was applied when the plots intersected.

[5] = test system: guinea pigs; settings: ref Greis et al. 40; cited from earlier work
Text: (§2) Whereas for Gram-negative species the major inflammation- and sepsis-inducing compounds are endotoxins, the responsible compounds for endotoxin-free organisms (Gram-positive bacteria, fungi, mycoplasma, some Gram-negative bacteria) are poorly described or unknown. From the present data, however, it appears to be that LP are the decisive compounds for inflammation- a ...

[6] = test system: rats; settings: ref Hübschle et al. 39; cited from earlier work
Text: as §2

[7] = test system: human TLR2; assay: IL-8 production in HEK293 cells transfected with TLR2; assay type: cell-based; settings: HEK293, 18 hours stimulation, relatively high LP concentrations; ELISA
Experimental: For HEK cell activation, human IL-8 was determined by sandwich enzyme-linked immunosorbent assay using IL-8 cytoset from BIOSOURCE (Life Technologies GmbH, Darmstadt Germany) exactly according to the manufacturer’s protocol. For transient transfection, HEK293 cells were plated at a density of 2.5 × 10^4/well in 96-well plates in Dulbecco’s modified Eagle’s medium (PAA, Pasching, Germany). The following day, cells were transfected using Lipofectamine (Life technologies) according to the manufacturer’s protocol. Expression plasmid containing the FLAG-tagged version of human TLR2 was a kind gift from P. Nelson, Seattle, WA and subcloned into pREP9 (Life Technologies). TLR2 plasmid was used at 100 ng/transfection. After 24 hours of transfection, cells were washed and stimulated for 18 hours with indicated compounds and positive controls. Finally, supernatants were collected and the interleukin-8 content was quantified using a commercial ELISA (Life technologies).
Data shown are the mean ± S.D. of triplicate samples of one experiment and representative of two independent experiments.

[8] = test system: TLR4; assay: IL-8 production in HEK cells transfected with a TLR4 expression vector; assay type: cell-based; settings: for IL-8 in TLR4-transfected cells: HEK cells, ELISA
[9] = active LP adopt non-lamellar aggregates, inactive a lamellar aggregate structure; cited from earlier work
Text: Similar arguments regarding the bioactive conical conformation of ...

[10] = test system: macrophages; settings: LP 19 KDa from M. tuberculosis; cited from earlier work
Text: When adding the polycationic polymyxin B (PMB), a traditional AMP[43] to the shortened 19 KDa LP, a similar lack of interaction was observed.

[11] = target: T1, FSL-1 (fibroblast-stimulating lipopeptide) (Mycoplasma salivarium); assay: ITC; lipopeptide 0.05 mM dispersion in the cell (1.5 ml); peptide 1 mM titrated in 3 μl aliquots every 5 min; 37 °C; MCS calorimeter; settings: both partners purified
T1 construct: the first C stands for the lipidated cysteine; Shortened analogue of the 44-kDa lipoprotein LP44 of Mycoplasma salivarium, its N-terminal part; stood in the assays as an aggregate dispersion of the lipopeptide; also called LP FSL-1; source: synthetic lipopeptide, EMC microcollections GmbH (Tübingen)
T1 peptide: [Pam2Cys]GDPKHPKSF

Molecule: GKKYRRFRWKFKGKWFWFG [Pep19–4, synthetic anti-LPS peptide (SALP)]
- inhibition efficiency in the biological experiments [1]: moderate

Molecule: Pam2Cys-GDPKHPKSF [FSL-1, fibroblast-stimulating lipopeptide, synthetic diacyl LP, shortened analogue of the 44-kDa LP LP44 of Mycoplasma salivarium]
- stimulation of MNC (TNFα induction) compared with LPS [2]: potency similar to that of LPS; also recorded: similarly active
- time of peak serum IL-6 level ([3]; data not shown): 4 h
- time of peak serum TNFα level ([3]; data not shown): 90 min
- serum TNFα response ([3]; n = 4, 1.5 h): potent
- serum IL-6 response ([3]; n = 4, 4 h): potent
- physical activity / survival score of each animal ([4]; 500 ng FSL-1 i.p. + D-galactosamine 18 mg/mouse, 24 hours): † † †
- physical activity / survival score of each animal ([4]; 500 ng FSL-1 i.p. + D-galactosamine 18 mg/mouse, 48 hours): † † †
- time to symptoms of sepsis (reduced motor activity, lethargy, shivering, piloerection) ([4]; 4 μg FSL-1 i.p. + D-galactosamine 18 mg/mouse): ≤ 120 min
- physical activity / survival score of each animal ([4]; 5 μg FSL-1 i.p. + D-galactosamine 18 mg/mouse, 24 hours): † † †
- physical activity / survival score of each animal ([4]; 5 μg FSL-1 i.p. + D-galactosamine 18 mg/mouse, 48 hours): † † †
- physical activity / survival score of each animal ([4]; 50 μg FSL-1 i.p. + D-galactosamine 18 mg/mouse, 24 hours): † † †
- physical activity / survival score of each animal ([4]; 50 μg FSL-1 i.p. + D-galactosamine 18 mg/mouse, 48 hours): † † †
- amount necessary to kill 100% of the animals in 48 h (LD100) ([4]; galactosamine-sensitized Balb/C mice, i.p., n = 3 per dose): 500 ng/mouse
- LD100 relative to the equivalent LD100 of Salmonella minnesota LPS ([4]; identical experimental conditions, LPS value from ref 24): 10 times higher
- in vivo biological activity [5]: High
- in vivo biological activity [6]: High

Molecule: Pam3Cys-SQEPAAPAAEATPAG [LP H8, synthetic triacyl LP, shortened analogue of LP blp NG from Neisseria gonorrhoeae]
- TNFα when adding 100 ng/ml of LP ([2]; data not shown): no detectable amounts
- concentration necessary to induce an observable TNFα secretion ([2]; data not shown): 10 µg/mL
- IL-8 secreting activity in TLR-2 transfected cells [7]: considerable IL-8 secreting activity
- IL-8 in TLR4-transfected cells [8]: nearly no IL-8 signal

Molecule: GRRYKKFRWKFKGRWFWFG [Pep19–8, synthetic anti-LPS peptide (SALP)]
- inhibition efficiency in the biological experiments [1]: low

Molecule: GCRRFKKFKKWRYRGRFWFWCFG [Pep19–12]
- inhibition of Pam3CSK4-induced cytokine (TNFα) production ([2]; stimulus Pam3CSK4 1000, 100, 10 ng/ml, [LP]:[Pep] up to 1:100 weight%): no or only a small inhibition

Molecule: Pam3Cys-NNSGKDGNTSANSAD [LP OspC, synthetic triacyl LP, shortened analogue of OspC from Borrelia burgdorferi]
- IL-8 secreting activity in TLR-2 transfected cells [7]: considerable IL-8 secreting activity
- IL-8 in TLR4-transfected cells [8]: nearly no IL-8 signal

Molecule: Pam3Cys-SKKKK [Pam3CSK4, reference compound]
- activation of MNC at 1 ng/ml ([2]; 1 ng/ml, data not shown): not
- activation of MNC at 10 ng/ml ([2]; 10 ng/ml, data not shown): some activation takes place
- stimulation of MNC (TNFα induction) compared with LPS [2]: markedly lower level than LPS
- IL-8 secreting activity in TLR-2 transfected cells [7]: considerable IL-8 secreting activity
- biological activity [9]: biologically active

Molecule: Pam2CSK4
- biological activity [9]: biologically active

Molecule: Pam2Cys-GNNDESNISFKEK [MALP-2, reference compound]
- stimulation of MNC (TNFα induction) compared with LPS [2]: similarly active

Molecule: polymyxin B
- inhibition of the stimulation of macrophages by the shortened 19 KDa LP [10]: lack of biological inhibition

Molecule: Pam3Cys-KQNVSSLDEKNSVSV [LP OspA, synthetic triacyl LP, shortened analogue of OspA from Borrelia burgdorferi]
- IL-8 secreting activity in TLR-2 transfected cells [7]: considerable IL-8 secreting activity
- IL-8 in TLR4-transfected cells [8]: nearly no IL-8 signal

Molecule: Pam3Cys-SSSNNDAAGNGAAQT [LP P6, synthetic triacyl LP, shortened analogue of protein P6 from Haemophilus influenzae]
- TNFα when adding 100 ng/ml of LP ([2]; data not shown): no detectable amounts
- concentration necessary to induce an observable TNFα secretion ([2]; data not shown): 10 µg/mL
- IL-8 secreting activity in TLR-2 transfected cells [7]: considerable IL-8 secreting activity
- IL-8 in TLR4-transfected cells at high concentration ([8]; 10 μg/ml): significant amounts of IL-8

B1: Pep19-2.5 (Aspidasept^®) (peptide)
peptide: GCKKYRRFRWKFKGKFWFWG-NH2
notes: designed synthetic anti-LPS peptide, 20-mer; purity >95% (HPLC, MALDI-TOF); also called SALP; synthetic anti-LPS peptide; source: synthetic peptide; batches produced by BACHEM (Bubendorf, Switzerland)
- binding result [11]: binds
